This assay concerns male C57BL/6N mice. The assay can be described thus: Murine NASH model (HFD, glucose/fructose water, thermoneutral housing). It is filed as in vivo, mouse. The method, then:
To model NASH in murine liver, male C57BL/6N mice were challenged with HFD for 24 weeks in conjunction with 18.9 g/L glucose&23.1 g/L fructose containing drinking water under thermoneutral housing condition (29°C) for 12 weeks before the administration of UCB9608 through HFD (15 mg/kg) for another 12 weeks. Then the mice were analysed in EcoMRI for body composition measurement before 6 hours fasting, followed by dissection to harvest liver and sample blood.
Total RNA was extracted from adipose depots, liver or in vitro cell cultures via Trizol reagent (Invitrogen) according to the manufacturer's instructions. Genomic DNA was removed from the crude RNA samples by DNase treatment (NEB BioLabs). For individual sample, 1 µg of total RNA was used to convert into cDNA library by using the High-Capacity cDNA Reverse transcription kit (Applied Biosystems, 4368813). Quantitative PCR was performed using KAPA SYBR FAST Universal kit (Roche, KK4618) on ViiA7 (Applied Biosystems) and the relative transcript levels were normalized to […] expression via ΔΔCt method. Table 2: Sequences of qPCR primers used in this study.
Plasma collected from mice under different conditions was used to determine levels of lipolysis and liver injury. FFA levels were measured via NEFA assay kit (Wako NEFA kit). TG levels were determined via TG assay kit (Roche Trig/GB reagent). ALT (MAK052, Sigma) and AST (MAK055, Sigma) assay kits were used to determine ALT and AST activity according to the manufacturer's instructions. The absorbance was monitored using Synergy Gen5 Platereader.
Weight of liver pieces (50-100 mg) was recorded before homogenization by 1 mL isopropanol per 50 mg tissue. The homogenates were incubated at room temperature with rotating before spinning down to remove debris at 2000×g for 10 min and collect supernatant. The TG levels were determined (Roche Trig/GB reagent) in Synergy Gen5 Platereader and normalized to the weight of liver pieces.
For NASH cohort, livers were dissected and fixed with 4% PFA in PBS for 24 h at 4°C. The samples were sent to the University of Zurich for histologic analyses. Briefly, liver tissues were dehydrated and embedded in paraffin and underwent section at 3 µm. The slides were stained with hematoxylin and eosin (H&E) and Gomori Green Trichrome directly or stained with anti-cleaved Caspase 3 after antigen retrieval. Afterwards, the images were captured by digital slide scanners and the grade of steatosis, ballooning, inflammation and fibrosis were quantified via the NASH Clinical Research Network Scoring System (Kleiner,D.E. et al. Hepatology 41, (2005)). To perform ORO staining, the fixed samples were sectioned, and the slides were stained via Oil Red O solution, followed by counter-staining with eosin. The images were acquired by digital slide scanners.

Where [1] appears, read: NASH mice, UCB9608 through HFD (15 mg/kg) 12 weeks.
The mark [2] stands for this setting: NASH mice, liver histology, UCB9608 12 weeks vs vehicle.

“Also recorded” adds a separate entry of the source.

Take `COc1ccc(NC(=O)N2CCN(c3nc(N)nc4c3cnn4C)[C@@H](C)C2)c(C)c1` [UCB9608]: for the setting “NASH livers, qPCR (Fig. 7j)”, the “inflammation levels by transcript levels of inflammatory markers” value is “mitigation”. In addition, the “degree of fibrosis-related marker expression” value (NASH livers, qPCR (Fig. 7k), vs vehicle) was “substantially ameliorated”. Under setting [1], the “ALT activity in the plasma” value is recorded as “reduction”, the “AST activity in the plasma” value was “reduction”, the “TG levels in the plasma” value is on record as “reduction; also recorded: reduced” and the “fatty acid oxidation (liver)” value is listed as “significant elevation”. Moreover, under setting [1], the “hepatic TG levels” value is listed as “reduced” and the “liver mass/body weight ratio” value is given as “reduced”. Besides, where the note is “NASH mice, UCB9608 through HFD (15 mg/kg) 12 weeks, EcoMRI”, the fat mass result is recorded as “significant loss”. In addition, under “NASH mice, UCB9608 through HFD (15 mg/kg) 12 weeks, vs vehicle”, the body weight result was “significant loss”. Besides, under setting [2], the NAFLD activity score entry is on record as “significantly lower”, the fibrosis grade result is listed as “significantly lower”, the inflammation levels entry was “significantly lower” and the liver injury entry is “significantly lower”. Under setting [2], the steatosis grade entry was “significantly lower”.
